One compound from patent US20220395542A1, “Nutritional Compositions for Treating a Clostridium Difficile Infection” (ABBOTT LABORATORIES, priority 2019, published 2022) can be followed below.

The test system of the test is C. difficile. As to the kind of experiment: in vitro gut digestion and fermentation model (SHIME PathoGut) assessing CDI and CDI recurrence. In kind it is cell-based, Clostridium difficile. Particulars: control experiments (FIGS. 1 and 2); vancomycin 125 mg/L three times per day for seven days after the 4 weeks of CDI.

With `CN[C@H](CC(C)C)C(=O)N[C@H]1C(=O)N[C@@H](CC(N)=O)C(=O)N[C@H]2C(=O)N[C@H]3C(=O)N[C@H](C(=O)N[C@H](C(=O)O)c4cc(O)cc(O)c4-c4cc3ccc4O)[C@H](O)c3ccc(c(Cl)c3)Oc3cc2cc(c3O[C@@H]2O[C@H](CO)[C@@H](O)[C@H](O)[C@H]2O[C@H]2C[C@](C)(N)[C@H](O)[C@H](C)O2)Oc2ccc(cc2Cl)[C@H]1O` [vancomycin], the CD cell count result is listed as “below detectable levels”.
